# According to ChEMBL document CHEMBL4354803, “Synthesis and biological activity of structurally diverse phthalazine derivatives: A systematic review” (Bioorg Med Chem, 2019):
# Tests used:
# [1] = Inhibition of human HeLa cell derived PARP preincubated for 10 mins followed by NAD and double stranded DNA-oligos addition and measured after 45 mins by scintillation counting; type: cell-based
# Mus musculus [2] = organism: Mus musculus; experiment: animal or person; conditions: ICR, ip
# MCF7 [3] = experiment: Cytotoxicity against human MCF7 cells; type: functional; conditions: read-out: LC50 (the source's name)
# [4] = biological target: T1, Poly [ADP-ribose] polymerase 1 (Homo sapiens, UniProt P09874); experiment: Inhibition of N-terminal GST-tagged human PARP1 expressed in a Baculovirus infected Sf9 insect cells using biotinylated substrate incubated for 1 hr by colorimetric method
# [5] = biological target: T1, Poly [ADP-ribose] polymerase 1; experiment: Inhibition of human PARP1 expressed in Escherichia coli incubated for 15 to 40 mins by ELISA
# [6] = biological target: T2, NAD-dependent protein deacetylase sirtuin-1 (Homo sapiens) (UniProt Q96EB6); experiment: Modulation of SIRT1 (unknown origin) expressed in Escherichia coli BL21(DE3) cells using Ac-EE-K(biotin)-GQSTSSHSK(Ac)NleSTEG-K(5TMR)-EE-NH2 as substrate after 25 mins by mass spectrometry
# T2 sequence (whole entry): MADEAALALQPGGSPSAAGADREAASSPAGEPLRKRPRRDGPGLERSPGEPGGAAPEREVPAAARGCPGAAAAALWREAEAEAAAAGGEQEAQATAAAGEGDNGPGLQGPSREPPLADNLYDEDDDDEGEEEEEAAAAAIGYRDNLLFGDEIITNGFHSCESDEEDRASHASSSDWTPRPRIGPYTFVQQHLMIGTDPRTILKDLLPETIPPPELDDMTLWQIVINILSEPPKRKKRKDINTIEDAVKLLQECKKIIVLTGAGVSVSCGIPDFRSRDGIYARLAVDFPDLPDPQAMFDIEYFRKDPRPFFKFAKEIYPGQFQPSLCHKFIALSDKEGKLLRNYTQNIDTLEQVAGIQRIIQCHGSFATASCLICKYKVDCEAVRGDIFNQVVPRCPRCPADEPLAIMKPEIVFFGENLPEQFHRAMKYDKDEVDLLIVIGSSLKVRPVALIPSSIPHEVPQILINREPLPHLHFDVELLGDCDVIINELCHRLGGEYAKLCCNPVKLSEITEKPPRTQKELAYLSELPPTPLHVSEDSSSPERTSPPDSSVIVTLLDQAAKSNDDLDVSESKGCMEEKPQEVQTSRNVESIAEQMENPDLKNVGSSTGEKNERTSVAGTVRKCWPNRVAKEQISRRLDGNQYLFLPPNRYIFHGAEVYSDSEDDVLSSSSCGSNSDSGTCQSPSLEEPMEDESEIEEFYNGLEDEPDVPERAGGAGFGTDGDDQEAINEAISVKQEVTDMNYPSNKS
# Mus musculus [7] = experiment: Antinociceptive activity in Balb/c mouse at 20 mg/kg, ip after 180 mins by tail flick test relative to control; type: functional
# Mus musculus [8] = experiment: Antinociceptive activity in Balb/c mouse at 20 mg/kg, ip after 120 mins by tail flick test relative to control; type: functional
# [9] = biological target: T1, Poly [ADP-ribose] polymerase 1; experiment: Inhibition of human PARP1 expressed in Escherichia coli incubated for 10 mins by colorimetric assay
# Mus musculus [10] = experiment: Potency index, ratio of valproate ED50 to compound ED50 for Anticonvulsant activity in ip dosed ICR mouse assessed as protection against 50 mA current-induced seizure pretreated for 30 mins followed by seizure induction measured for 60 mins by maximal electroshock seizure test; type: functional
# [11] = biological target: T3, Aldo-keto reductase family 1 member B1 (Homo sapiens, UniProt P15121); experiment: Inhibition of human Aldose reductase
# Mus musculus [12] = experiment: Anticonvulsant activity in ip dosed mouse assessed as protection against PTZ-induced seizure; type: functional
# Ehrlich = experiment: Antitumor activity against mouse EAC cells implanted in Swiss albino mouse assessed as reduction in tumor growth at 5 mg/kg, ip dosed daily starting 6 days after inoculation; type: functional, organism-based; conditions: 144 h
# HepG2 [13] = experiment: Cytotoxicity against human HepG2 cells incubated for 48 hrs by sulforhodamine B staining based ELISA; type: functional, cell-based; conditions: HepG2, 48 h
# PC-3 = experiment: Cytotoxicity against human PC3 cells after 24 hrs by MTT assay; type: functional, cell-based; conditions: PC-3, 24 h
# Rattus norvegicus = experiment: In vivo inhibition of Aldose reductase in streptozotocin-induced po dosed rat model of diabetes assessed as reduction in sorbitol accumulation in sciatic nerve administered at 4,7,24 hrs and measured at 27 hrs; type: functional
# [14] = biological target: T3, Aldo-keto reductase family 1 member B1
# Description: Inhibition of human placenta Aldose reductase
# HepG2 [15] = experiment: cells; conditions: Homo sapiens, HepG2, 24 h
# Description: Cytotoxicity against human HepG2 cells after 24 hrs by MTT assay
# MCF7 [16] = experiment: cells; conditions: Homo sapiens, MCF7, 24 h
# Description: Cytotoxicity against human MCF7 cells after 24 hrs by MTT assay
# [17] = biological target: Cystic fibrosis transmembrane conductance regulator (Homo sapiens, UniProt P13569, F508DEL/H148Q/I152L); experiment: Inhibition of human CFTR F508 deletion mutant expressed in rat FRT cells coexpressing YFP-H148Q/I152L 25,22 incubated for 60 to 120 mins in presence of forskolin by fluorescent method; type: cell-based
# [18] = Inhibition of recombinant human PARP expressed in Escherichia coli in presence of NAD+ by microplate scintillation counting method
# [19] = Inhibition of PARP in human C41 cells assessed as reduction in protein accumulation preincubated for 30 mins followed by H2O2 addition and measured after 10 mins by FITC/DAPI-staining based fluorescence method; type: cell-based
# MDA-MB-468 = experiment: Growth inhibition of human MDA-MB-468 cells after 7 days by CCK-8 method; type: functional, cell-based; conditions: MDA-MB-468, 168 h
# CAPAN-1 = experiment: Growth inhibition of human Capan1 cells after 7 days by CCK-8 method; type: functional, cell-based; conditions: CAPAN-1, 168 h
# HUVEC = experiment: Induction of HUVEC proliferation incubated for 20 hrs followed by 3H thymidine incorporation and measured after 4 hrs by beta counting method; type: functional, cell-based; conditions: Homo sapiens
# [20] = Induction of mouse primary oligodendrocytes incubated for 16 to 24 hrs by WSTl reagent based assay; type: functional
# Prostaglandin E synthase = biological target: T4, Prostaglandin E synthase (Homo sapiens, UniProt O14684); experiment: Inhibition of mPGES-1 in human A549 cells assessed as reduction in […] induced PGE2 release preincubated for 30 mins followed by […] addition and measured after 16 to 20 hrs by HTRF assay; type: cell-based
# T4 sequence (O14684 whole entry): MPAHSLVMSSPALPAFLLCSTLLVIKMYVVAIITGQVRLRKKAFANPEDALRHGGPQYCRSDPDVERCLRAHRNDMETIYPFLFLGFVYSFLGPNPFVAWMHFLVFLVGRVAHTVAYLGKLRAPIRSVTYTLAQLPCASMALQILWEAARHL
# [21] = biological target: T1, Poly [ADP-ribose] polymerase 1; experiment: Inhibition of human PARP1 expressed in Escherichia coli using histone as substrate by ELISA
# T1 sequence (P09874 whole entry): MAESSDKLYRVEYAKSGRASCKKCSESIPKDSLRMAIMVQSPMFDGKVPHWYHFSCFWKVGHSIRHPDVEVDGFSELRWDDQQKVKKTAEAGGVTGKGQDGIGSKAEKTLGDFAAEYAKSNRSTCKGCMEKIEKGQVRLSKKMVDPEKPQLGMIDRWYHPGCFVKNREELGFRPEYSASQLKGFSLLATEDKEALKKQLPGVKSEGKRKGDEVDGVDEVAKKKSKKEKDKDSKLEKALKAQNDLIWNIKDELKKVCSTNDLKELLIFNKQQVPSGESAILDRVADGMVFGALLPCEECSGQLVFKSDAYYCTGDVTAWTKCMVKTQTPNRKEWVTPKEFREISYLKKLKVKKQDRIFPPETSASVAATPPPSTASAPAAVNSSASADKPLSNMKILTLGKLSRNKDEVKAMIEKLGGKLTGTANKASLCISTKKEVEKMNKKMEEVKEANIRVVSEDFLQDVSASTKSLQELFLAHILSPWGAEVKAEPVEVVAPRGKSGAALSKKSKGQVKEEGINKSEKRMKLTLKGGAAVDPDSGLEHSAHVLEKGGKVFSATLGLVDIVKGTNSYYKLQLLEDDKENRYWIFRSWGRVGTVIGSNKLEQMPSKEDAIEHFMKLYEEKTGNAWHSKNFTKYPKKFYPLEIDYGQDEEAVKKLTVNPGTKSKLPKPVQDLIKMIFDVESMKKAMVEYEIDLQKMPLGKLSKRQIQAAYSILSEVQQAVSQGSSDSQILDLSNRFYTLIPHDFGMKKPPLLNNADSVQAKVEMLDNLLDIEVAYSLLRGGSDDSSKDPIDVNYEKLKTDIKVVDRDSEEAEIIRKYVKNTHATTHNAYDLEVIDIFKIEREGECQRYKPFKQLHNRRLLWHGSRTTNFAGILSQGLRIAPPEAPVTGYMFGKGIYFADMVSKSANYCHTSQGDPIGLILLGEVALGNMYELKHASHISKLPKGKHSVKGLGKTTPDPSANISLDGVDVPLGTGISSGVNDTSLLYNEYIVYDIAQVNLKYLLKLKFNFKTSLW
# Chain of Cystic fibrosis transmembrane conductance regulator (P13569 whole entry, looked up, stated change not applied): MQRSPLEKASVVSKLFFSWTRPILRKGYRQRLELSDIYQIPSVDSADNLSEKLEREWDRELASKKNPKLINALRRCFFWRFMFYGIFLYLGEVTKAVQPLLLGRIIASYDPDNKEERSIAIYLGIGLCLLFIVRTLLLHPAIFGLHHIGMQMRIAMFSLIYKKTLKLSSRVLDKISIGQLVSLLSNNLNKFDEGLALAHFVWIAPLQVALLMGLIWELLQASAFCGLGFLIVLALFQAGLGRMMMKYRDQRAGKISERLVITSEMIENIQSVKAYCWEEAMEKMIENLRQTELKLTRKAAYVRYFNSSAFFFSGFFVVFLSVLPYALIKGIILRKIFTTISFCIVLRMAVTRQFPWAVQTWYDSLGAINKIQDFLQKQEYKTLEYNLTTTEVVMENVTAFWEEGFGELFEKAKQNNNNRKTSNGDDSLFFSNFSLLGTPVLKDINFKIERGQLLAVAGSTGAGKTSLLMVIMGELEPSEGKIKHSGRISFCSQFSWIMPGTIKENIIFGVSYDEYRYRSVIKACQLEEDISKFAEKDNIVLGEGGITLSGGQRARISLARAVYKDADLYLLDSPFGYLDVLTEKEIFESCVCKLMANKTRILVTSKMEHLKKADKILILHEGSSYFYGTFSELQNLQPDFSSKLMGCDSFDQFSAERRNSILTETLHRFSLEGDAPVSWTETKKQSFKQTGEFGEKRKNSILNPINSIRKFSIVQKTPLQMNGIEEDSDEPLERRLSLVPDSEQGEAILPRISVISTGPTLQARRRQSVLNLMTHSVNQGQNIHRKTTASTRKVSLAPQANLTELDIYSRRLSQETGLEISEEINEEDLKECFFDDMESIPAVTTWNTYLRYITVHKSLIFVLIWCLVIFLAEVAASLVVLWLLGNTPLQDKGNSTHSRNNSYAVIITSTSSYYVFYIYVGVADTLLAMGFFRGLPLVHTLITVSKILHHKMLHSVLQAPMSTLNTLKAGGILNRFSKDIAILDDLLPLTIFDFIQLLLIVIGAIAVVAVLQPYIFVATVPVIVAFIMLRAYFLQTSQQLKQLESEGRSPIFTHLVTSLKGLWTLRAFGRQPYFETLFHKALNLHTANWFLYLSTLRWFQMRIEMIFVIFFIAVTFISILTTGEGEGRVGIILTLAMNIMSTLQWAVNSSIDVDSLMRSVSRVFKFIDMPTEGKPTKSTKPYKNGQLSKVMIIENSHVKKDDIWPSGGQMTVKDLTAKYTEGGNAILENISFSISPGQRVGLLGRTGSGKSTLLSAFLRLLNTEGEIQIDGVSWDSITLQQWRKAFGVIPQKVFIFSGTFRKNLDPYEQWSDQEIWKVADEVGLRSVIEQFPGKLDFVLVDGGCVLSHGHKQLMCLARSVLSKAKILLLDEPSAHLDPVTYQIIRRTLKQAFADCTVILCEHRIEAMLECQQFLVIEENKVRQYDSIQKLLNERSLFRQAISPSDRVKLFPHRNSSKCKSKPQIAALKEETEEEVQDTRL
compound,measurement,setting,value
O=C(c1cc(Cc2n[nH]c(=O)c3ccccc23)ccc1F)N1CCN(c2ccccn2)CC1,IC50,[1],3 nM
O=C(O)CSc1nnc(Cn2[nH]c(=O)c3ccccc3c2=O)o1,ED50,Mus musculus [2],184 µmol/kg
CC(S)C[C@H](NC(=O)Cn1ncc2ccccc2c1=O)C(N)=O (stereo partly specified),CC50,MCF7 [3],20300 nM
O=C(CCCn1nc(-c2ccccc2)c2ccccc2c1=O)Nc1cccc(Cl)c1,IC50,[4],97 nM
COC1CCN(C(=O)c2cc(Cc3n[nH]c(=O)c4ccccc34)ccc2F)CC1 [AZD2461],IC50,[1],5 nM
O=C(c1cc(Cc2n[nH]c(=O)c3ccccc23)ccc1F)N1CCn2cnnc2C1,IC50,[5],5000 nM
CC1C(=O)N(c2cccc(Cc3n[nH]c(=O)c4ccccc34)c2)C(=O)N1CCN1CCCCC1 (stereo unspecified),IC50,[1],2.8 nM
O=C(Nc1cccc2cnn(-c3cccc(OC(F)(F)F)c3)c(=O)c12)c1cccc(CN2CCOCC2)n1,EC1.5,[6],< 5 µM
CN(C)CCn1nc(-c2ccncc2)c2ccccc2c1=O,MPE,Mus musculus [7],18.26%
same,MPE,Mus musculus [8],14.84%
O=C(c1cc(Cc2n[nH]c(=O)c3ccccc23)ccc1F)N1CCn2c(nnc2C2CC2)C1,IC50,[9],8.41 nM
CCCC(CCC)C(=O)O [VALPROIC ACID],ED50,Mus musculus [2],1710 µmol/kg
CC1NC(=O)N(c2cccc(Cc3n[nH]c(=O)c4ccccc34)c2)C1=O (stereo unspecified),IC50,[1],5 nM
O=C(c1cc(Cc2n[nH]c(=O)c3ccccc23)ccc1F)N1CCNCC1,IC50,[1],< 20 nM
COC(=O)CSc1nnc(Cn2[nH]c(=O)c3ccccc3c2=O)o1,ED50,Mus musculus [2],172 µmol/kg
same,Ratio ED50,Mus musculus [10],10
O=C(O)Cc1nn(Cc2cc(F)cc(Br)c2)c(=O)c2ccccc12,IC50,[11],20 nM
O=C1CCC(=O)N1c1cccc(Cc2n[nH]c(=O)c3ccccc23)c1,ED50,Mus musculus [12],0.0016 µmol/kg
same,IC50,[1],< 3 nM
O=C(Cn1nc(Cc2ccccc2)c2ccccc2c1=O)NNC(=S)Nc1ccccc1,IC50,Ehrlich,20 nM
same,IC50,HepG2 [13],10 nM
CCOC1CCN(C(=O)c2cc(Cc3n[nH]c(=O)c4ccccc34)ccc2F)CC1,IC50,[1],3 nM
O=c1[nH]cc(F)c(=O)[nH]1 [FLUOROURACIL],IC50,PC-3,63800 nM
O=C(Nc1cccc2cnn(-c3cccc(C(F)(F)F)c3)c(=O)c12)c1cccc(OCC(O)CO)n1 (stereo unspecified),EC1.5,[6],< 5 µM
O=C(c1cc(Cc2n[nH]c(=O)c3ccccc23)ccc1F)N1CC2C(=O)N(Cc3ccccc3)C(=O)C2C1 (stereo unspecified),IC50,[5],0.5 nM
O=C(O)Cc1nn(Cc2nc3cc(Br)ccc3s2)c(=O)c2ccccc12,ED50,Rattus norvegicus,3.6 mg/kg
CN(C)CCn1nc(-c2ccccc2)c2ccccc2c1=O,MPE,Mus musculus [8],39.61%
O=C(c1cc(Cc2n[nH]c(=O)c3ccccc23)cc2c1OCC2)N1CCn2c(nnc2C(F)(F)F)C1,IC50,[5],1.7 nM
O=C(O)Cc1nn(Cc2nc3cc(F)cc(F)c3o2)c(=O)c2ccccc12,IC50,[14],3.2 to 52 nM
same,ED50,Rattus norvegicus,5.6 mg/kg
O=c1c2ccccc2c(Cc2ccccc2)nn1CC(=S)NNS(=O)(=O)c1ccccc1,IC50,HepG2 [15],22200 nM
same,IC50,MCF7 [16],19800 nM
Cc1nc2ccc(N(C)C(=O)Cn3nc(-c4cccc(Cl)c4)c4ccccc4c3=O)cc2o1,EC50,[17],< 10000 nM
Cc1c(CC(=O)O)nn(Cc2nc3cc(C(F)(F)F)ccc3s2)c(=O)c1C,IC50,[11],10 to 16 nM
O=C(c1cc(Cc2n[nH]c(=O)c3ccccc23)ccc1F)N1CCN(c2ncccn2)CC1,IC50,[18],0.7 nM
same,EC50,[19],0.7 nM
O=C(Nc1cccc2cnn(-c3cccc(C(F)(F)F)c3)c(=O)c12)c1cscn1,EC1.5,[6],< 5 µM
O=C(Nc1ccc(-c2cccc(Cc3n[nH]c(=O)c4ccccc34)c2)cc1)C1CC1,IC50,[1],57 nM
O=C(Nc1cccc2cnn(-c3cccc(C(F)(F)F)c3)c(=O)c12)c1cccc(CN2CCOCC2)n1,EC1.5,[6],< 5 µM
O=C(c1cc(Cc2n[nH]c(=O)c3ccccc23)ccc1F)N1CCn2c(nnc2C(F)F)C1,IC50,MDA-MB-468,0.003 nM
same,IC50,CAPAN-1,0.003 nM
O=C(O)Cc1nn(Cc2nc3cc(C(F)(F)F)ccc3s2)c(=O)c2cc3ccccc3cc12,IC50,[11],46 nM
O=C(Nc1cccc2cnn(-c3cccc(OC(F)(F)F)c3)c(=O)c12)c1cccc(OCC(O)CO)n1 (stereo unspecified),EC1.5,[6],< 5 µM
Cc1c(CC(=O)O)nn(Cc2nc3cc(F)cc(F)c3s2)c(=O)c1C,IC50,[11],3.2 to 5 nM
O=c1[nH]nc(-c2ccc(N3CCCCCC3)c([N+](=O)[O-])c2)c2ccccc12,EC50,HUVEC,2500 nM
same,EC50,[20],200 nM
CC(=O)CNC(=O)Cn1nc(Cc2ccccc2)c2ccccc2c1=O,IC50,HepG2 [13],10 nM
O=C(O)Cc1nn(Cc2nc3cc(C(F)(F)F)ccc3s2)c(=O)c2ncccc12,IC50,[11],2.1 to 52 nM
O=C(Nc1ccc2cnn(-c3ccc(Br)cc3)c(=O)c2c1)c1c(F)cccc1Cl,IC50,Prostaglandin E synthase,< 50 nM
CN1CC(=O)N(c2cccc(Cc3n[nH]c(=O)c4ccccc34)c2)C1=O,ED50,Mus musculus [12],0.00166 µmol/kg
same,IC50,[1],< 10 nM
O=C(Cn1nc(Cc2ccccc2)c2ccccc2c1=O)NNS(=O)(=O)c1ccccc1,IC50,HepG2 [15],17400 nM
same,IC50,PC-3,19800 nM
CCN1CCCC2CN(C(=O)c3cc(Cc4n[nH]c(=O)c5ccccc45)ccc3F)CC21 (stereo unspecified),IC50,[21],2 nM
CCOC(=O)CSc1nnc(Cn2[nH]c(=O)c3ccccc3c2=O)o1,ED50,Mus musculus [2],193 µmol/kg
O=C(Nc1cccc2cnn(-c3cccc(C(F)(F)F)c3)c(=O)c12)c1cnccn1,EC1.5,[6],< 5 µM
